In patent US6683162B2, “Targeted alpha particle therapy using actinium-255 conjugates” (Sloan Kettering Institute of Cancer Research, priority 2000, dated 2004):

Experiments:
[1] = system: human HL60 leukemia cells; assay: In vitro cytotoxicity (LD50), HL60, tritiated thymidine incorporation; assay type: cell-based
Experimental: The potency and specificity of 225Ac-HuM195-DOTA was then evaluated in-vitro as a function of specific activity and activity concentration (FIG. 6). A suspension of HL60 cells were washed twice with complete media and then dispensed into a 96 well cell culture plate in complete media supplemented with 2% human serum. The volume was 100 μl and the cells were at a density of 5×10^5 cells/ml. Next a serial dilultion of purified ^225Ac-HuM195-DOTA was added to the wells. The diluent was complete media and volume added was 100 μl. The starting activity was 10 nCi/ml, which was diluted 5-fold for each subsequent tube. […] The cells were incubated for 2 days at 37° C., following which tritiated thymidine was added (0.5 pC, in 50 il complete media/well). The cells were incubated at 37° C. for an additional 5 h, then harvested using a Combi Cell Harvestor (Skatron Instruments). Cell viability was determined by analyzing the degree of tritiated thymidine incorporated into the DNA of the treated cells relative to control cells.
The potency and specificity of [225Ac]IgG for killing single cancer cells is determined using 5E4 cells in 0.2 mL per well in 96 well plates. Serial dilutions of [225Ac]IgG are added (triplicate) to the cells to yield final activity in the wells ranging from 74 kBl/mL to 37E-6 kB q/mL. Non-specific killing is measured after target cells are blocked with a 100-10000-fold excess of unlabeled IgG before plating and subsequent addition of [225Ac]IgG.

[2] = system: HL60 cells; assay: In vitro internalization of 225Ac-HuM195-DOTA; assay type: cell-based, human; settings: 37° C., in 5 hours
Experimental: The internalizing ability of the purified ^225Ac-HuM195-DOTA was tested with HL60 cells. The cells were washed twice with complete media and then incubated for 20 min on ice in complete media containing 2% rabbit serum. The cells were washed twice with ice cold complete media and then resuspended in 5 ml of complete media at a density of 5×10^6 cells/ml. After placing the cell suspension on ice purified ^225Ac-HuM195-DOTA (15 ng) was added. After mixing a sample of the sample of the cell suspension as taken and the rest of the cell suspension was placed into a 37° C. incubator. At various time points samples of the cell suspensions were taken. The samples were centrifuged, the supernatant removed and the cells washed twice with ice cold PBS. Stripping buffer (50 mM glycine, 150 mM NaCl, pH 2.8) was added to the cells and allowed to incubate for 10 min at room temperature. The cells were centrifuged and the supernatant drawn off and saved for counting. The cell pellet was washed once with PBS and both the cell pellet and wash were saved for counting.

[3] = system: antigen positive cells (HL60); assay: Cell based immunoreactivity assay, antigen positive cells; assay type: binding, human; settings: HL60, antigen excess, on ice
Experimental: A cell based immunoreactivity assay (binding of labeled antibody to antigen excess) was used to determine the percentage of HuM195 that retained its immunoreactivity after conjugation and purification. The assay was conducted with antigen positive cells (HL60, available from American Tissue Culture Collection [ATCC]) and antigen negative cells (Daudi, ATCC).
The cells were centrifuged, the supernatant removed and the cells resuspended to a density of 10^8 cells/ml in 2% w/v bovine serum albumin in phosphate buffered saline, pH 7.2 (PBS). Aliquots of cell suspension ([…]) were transferred to microcentrifuge tubes placed on ice to which purified ^225Ac-HuM195-DOTA (3 ng) was added. The cell suspensions were incubated for 30 min, centrifuged and the supernatant containing any unbound ^225Ac-HuM195-DOTA was transferred to a second microcentrifuge tube of cell suspension. The second tube was incubated on ice for 30 min. The first cell pellets were washed with PBS and the cells and washes saved for γ emission counting. The second set of cell suspensions were centrifuged, the supernatant removed and the pellets were washed with PBS. The set of supernate, cell pellets and washes were saved for counting. The percentage of radioactivity that was associated with the cells was then determined.

## 225Ac-HuM195-DOTA
[1]; HL60 (non-specific), excess unlabeled antibody, S.A. 0.089 GBq/g
  LD50: 185.0 Bq/mL
[1]; HL60 (specific), S.A. 8.9 GBq/g
  LD50: 0.3 Bq/mL
[1]; HL60, Ac-225 construct, S.A. 0.24 Ci/g
  LD50: 8 pCi/mL
[1]; HL60, specific activity 0.094 nCi/ng, 2 days at 37° C. then tritiated thymidine 5 h
  LD50: about 1.3 nCi/ml
[2]
  activity internalized: 50%
[3]
  activity associated with the cells (immunoreactivity): 74%
